pIC50: −log10 of the molar value. Like-named read-outs stand apart in the source and are kept apart here.
Assays:
C57BL/10-mdx (mdx) mice = assay: Forelimb grip strength test in mice; type: in vivo; details: 30 mg/kg orally once a day for 4 weeks, * = significance level below 0.05 vs control group
Procedure: 4-week-old male C57BL/10-mdx (mdx) mice were used as a disease group, and 4-week-old male C57BL/10Sn (wild) mice were used as a normal group in the test. A acclimation period was provided after the arrival of the mice. An initial value of each individual was measured at 5 weeks of age, and 10 mice were assigned to each group. From the following day, the test compound (30 mg/kg) was orally administered to the mice once a day consecutively for 4 weeks. The animals in the control group only received the vehicle orally. The forelimb grip strength was measured at 4 weeks after the start of the administration. A value obtained by dividing the average of 5 forelimb grip strength measurement values (kg) determined using a small animal grip strength measurement device (GPM-100M, Melquest) by the body weight (kg) was used as the evaluation index (reference literature: Muscle Nerve., 35, 43-48 (2007)).
9 or more cases were obtained from each group to determine whether expression of forelimb grip strength enhancing action occurred. First, a significant decrease in the value of the control group compared to that of the normal group was confirmed, and then the value of the control group was compared with the value of the compound-administered group. When the significance level was below 0.05, the action was considered to be present and indicated by symbols (#) and (*) in the table.

human H-PGDS = human H-PGDS (Homo sapiens (Human), UniProt O60760); assay: Hematopoietic prostaglandin D synthase (H-PGDS) inhibiting action; type: biochemical; details: for H-PGDS inhibition rate (%): compound at 0.1 μM, relative to the control group
human H-PGDS, sequence (O60760 whole entry): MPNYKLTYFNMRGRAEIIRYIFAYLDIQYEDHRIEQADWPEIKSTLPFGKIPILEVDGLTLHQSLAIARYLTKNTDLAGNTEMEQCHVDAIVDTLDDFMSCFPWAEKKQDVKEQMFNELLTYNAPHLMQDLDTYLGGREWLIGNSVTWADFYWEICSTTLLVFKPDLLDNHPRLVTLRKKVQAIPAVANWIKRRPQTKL
Procedure: More specifically, the reaction mixture (49 μL) containing 100 mM Tris-HCl (pH 8.0), 1 mM reduced glutathione, 0.1 mg/mL γ-globulin, and human H-PGDS (q.s.), and a compound (final concentration: 0.01-100 μM) was preincubated at 25° C. for 5 minutes. Note that a DMSO solution (final concentration: 1%) was added to the solvent control group. Subsequently, 1 μL of [14C] prostaglandin H2 (final concentration: 10 μM) was added to start the reaction. One minute after the start of the reaction, 250 μL of a reaction stopper solution (diethylether/methanol/1 M citric acid (30/4/1) at a temperature of −20° C. was added to stop the reaction. After the reaction was stopped, 50 μL of the upper layer portion (organic solvent phase) was applied to a TLC plate and developed at −20° C. for 45 minutes (developing solvent: diethylether/methanol/acetic acid (90/2/1)). After drying the TLC plate, the TLC plate was exposed to an imaging plate for 1 to 24 hours, and the radioactivity corresponding to prostaglandin D2 (PGD2) was analyzed using an image analyzer (produced by Fujifilm Corporation).

[1] = tested on: eosinophil infiltration in guinea pigs with antigen-induced rhinitis; assay: Eosinophil infiltration inhibiting action in guinea pigs with antigen-induced rhinitis; type: in vivo; details: 30 mg/kg orally 3 times; washing 6 hours after induction; * = significance level below 0.05 vs control group
Procedure: (§1) A physiological saline solution containing 1 mg/mL of ovalbumin was subcutaneously injected into the back of 5-week-old male Std:Hartley guinea pigs in an amount of 1 mL/body for active sensitization (initial sensitization). One week and two weeks after initial sensitization, 20 μL of a physiological saline solution containing 10 mg/mL of ovalbumin was instilled into each nasal cavity using a micropipette (sensitization by nasal administration). Three weeks after initial sensitization, 20 μL of a physiological saline solution containing 10 mg/mL of ovalbumin was instilled into each nasal cavity using a micropipette to induce a rhinitis reaction.
The test compound (30 mg/kg) was orally administered 3 times in total (2 times at sensitization by nasal administrations and 1 time at the induction of a rhinitis reaction), 1 hour before sensitization or induction. The animals in the control group only received the medium orally.
6 hours after the induction of a rhinitis reaction, the nasal cavities were washed under pentobarbital sodium anesthesia. A nasal cavity washing liquid (phosphate buffered saline containing 3 mM of EDTA and 10 μM of indomethacin) was flushed using a Peristaltic Pump (Gilson, Inc.) in the direction from the trachea to the upper respiratory tract at the flow rate of 1 mL/min, and the liquid flowing out from the nasal cavities was collected for 3 minutes. The collected liquid was filtered through a cell strainer (40 μm), and centrifuged at 4° C., 300×g, for 10 minutes. Subsequently, the supernatant was removed by suction. 250 μL of nasal cavity washing liquid was added to the cell pellet to form a suspension. The total number of cells (×10^5 cells) in the cell suspension was determined using an automated blood cell counter (F-820, Sysmex Corporation).
A cell smear was prepared using a centrifugal device to collect cells (Cytospin-3, Shandon). After the cells were stained using a cell stain solution, the number of monocytes, the number of eosinophils, and the number of neutrophils were counted to obtain 300 cells in total by observation under a microscope (200-times magnification). The component ratio of each cell was calculated, and the number of eosinophils in the nasal cavity washing liquid was determined by the following formula. Number of eosinophils([…])=(Eosinophil count÷total count(300))×total number of cells
The rate of decrease in the number of eosinophils in the nasal cavity washing liquid was regarded as the eosinophil infiltration inhibition rate, and determined by the following formula. […] Inhibition rate(%)={(Number of eosinophils in the control group−number of eosinophils in the compound-administered group)÷(number of eosinophils in the control group−number of eosinophils in the normal group)}×100
16 cases were obtained from each group, and the number of eosinophils in the nasal cavity washing fluid was compared between the control group and each compound-administered group. Note that when the significance level was below 0.05, the eosinophil infiltration inhibiting action was considered to be present and indicated by a symbol (*) in the table.

[2] = tested on: PGD2 production in the nasal cavities of guinea pigs with antigen-induced rhinitis; assay: PGD2 production inhibiting action in the nasal cavities of guinea pigs with antigen-induced rhinitis; type: in vivo; details: for Rate of decrease in PGD2 concentration in the nasal cavity washing fluid (%): 30 mg/kg orally 1 hour before induction, washing 30 minutes after induction, * = significance level below 0.05 vs control group
Procedure: as §1
The test compound (30 mg/kg) was orally administered 1 hour before induction of a rhinitis reaction. The animals in the control group only received the medium orally.
30 minutes after the induction of a rhinitis reaction, the nasal cavities were washed under pentobarbital sodium anesthesia. A nasal cavity washing liquid (phosphate buffered saline containing 3 mM of EDTA and 10 μM of indomethacin) was flushed using a Peristaltic Pump (Gilson, Inc.) in the direction from the trachea to the upper respiratory tract at the flow rate of 1 mL/min, and the liquid flowing out from the nasal cavities was collected for 1 minute. The collected liquid was centrifuged to separate the supernatant as the nasal cavity washing fluid. The concentration of PGD2 in the nasal cavity washing fluid was determined using an EIA kit (Prostaglandin D2-MOX EIA kit, Cayman Chemical).
The rate of decrease in PGD2 in the nasal cavity washing fluid was calculated by the following formula. […] Rate of decrease in PGD2 in the nasal cavity washing fluid(%)={(PGD2 concentration in the control group−PGD2 concentration in the compound-administered group)÷(PGD2 concentration in the control group−PGD2 concentration in the normal group)}×100 […]

[3] = human H-PGDS, [14C] prostaglandin H2 10 μM
[4] = human H-PGDS, [14C] prostaglandin H2 10 μM, read-out: IC50

Row | Molecule | Forelimb grip strength measurement value/body weight (kg/kg) (C57BL/10-mdx (mdx) mice) | H-PGDS inhibition rate (%) (human H-PGDS; [3]) | pIC50 (human H-PGDS; [4]) | Eosinophil infiltration inhibition rate (%) [1] | also measured
1 | 4-((1-methylpyrrol-2-yl)-carbonyl)-N-(4-(4-morpholin-1-yl-carbonylpiperidin-1-yl)-phenyl)-1-piperazinecarboxamide [Example 3] | 4.80 ± 0.09* kg/kg | 54.2 | 7.12 | 49.9* % | Rate of decrease in PGD2 concentration in the nasal cavity washing fluid (%) [2]: 77.5* %
2 | Cn1ccnc1C(=O)N1CCN(C(=O)Nc2ccc(N3CCC(C(=O)N4CCOCC4)CC3)cc2)CC1 [Reference Example 9, 4-((1-methylimidazol-2-yl)-carbonyl)-N-(4-(4-morpholin-1-yl-carbonylpiperidin-1-yl)-phenyl)-1-piperazinecarboxamide] | – | −2.8 | < 6.00 | – | –
3 | O=C(Nc1ccc(N2CCC(C(=O)N3CCOCC3)CC2)cc1)N1CCN(C(=O)C2CCCC2)CC1 [Reference Example 10, 4-(cyclopentylcarbonyl)-N-(4-(4-morpholin-1-yl-carbonylpiperidin-1-yl)-phenyl)-1-piperazinecarboxamide] | – | −2.2 | < 6.00 | – | –
4 | O=C(Nc1ccc(N2CCC(C(=O)N3CCOCC3)CC2)cc1)N1CCN(C(=O)c2ccccc2)CC1 [Reference Example 11, 4-(benzoyl)-N-(4-(4-morpholin-1-yl-carbonylpiperidin-1-yl)-phenyl)-1-piperazinecarboxamide] | – | 15.8 | 6.36 | – | –
5 | O=C(Nc1nc2ccc(Br)cc2s1)N1CCN(C(=O)c2cccc(F)c2)CC1 [Reference Example 13, 4-(3-fluorobenzoyl)-piperazine-1-carboxylic acid-(6-bromobenzothiazol-2-yl)amide] | 4.37 ± 0.15 kg/kg | – | – | 34.2% | –
6 | Cc1cc2nc(NC(=O)N3CCN(C(=O)c4cccc(F)c4)CC3)sc2cc1C [Reference Example 14, 4-(3-fluorobenzoyl)-piperazine-1-carboxylic acid-(5,6-dimethylbenzothiazol-2-yl)amide] | 4.26 ± 0.22 kg/kg | – | – | −25.1% | –
7 | Cc1ccc2nc(NC(=O)N3CCN(C(=O)c4cccc(F)c4)CC3)sc2c1 [Reference Example 15, 4-(3-fluorobenzoyl)piperazine-1-carboxylic acid-(6-methylbenzothiazol-2-yl)amide] | 4.20 ± 0.20 kg/kg | – | – | −133.3* % | –
8 | COc1ccc2nc(NC(=O)N3CCN(C(=O)c4cccc(F)c4)CC3)sc2c1 [Reference Example 16, 4-(3-fluorobenzoyl)piperazine-1-carboxylic acid-(6-methoxybenzothiazol-2-yl)amide] | 4.29 ± 0.24 kg/kg | – | – | −108.0* % | –
9 | O=C(Nc1nc2ccc(Cl)cc2s1)N1CCN(C(=O)c2cccc(F)c2)CC1 [Reference Example 17, 4-(3-fluorobenzoyl)piperazine-1-carboxylic acid-(6-chlorobenzothiazol-2-yl)amide] | 4.48 ± 0.15 kg/kg | – | – | 16.6% | –
10 | O=C(Nc1ccc(C(F)(F)F)cc1)N1CCN(C(=O)c2cccc(F)n2)CC1 [Reference Example 18, 4-(6-fluoropyridine-2-carbonyl)piperazine-1-carboxylic acid-(4-trifluoromethylphenyl)amide] | – | – | – | – | pIC50 (human H-PGDS): < 6.00
11 | CON(C)C(=O)c1[nH]c(C)c(-c2nc3ccc(C(=O)c4ccccc4)cc3[nH]2)c1C [Reference Example 19, N-methoxy-N-methyl-4-(5-benzoylbenzimidazol-2-yl)-3,5-dimethylpyrrol-2-carboxamide] | – | – | – | – | Rate of decrease in PGD2 concentration in the nasal cavity washing fluid (%) [2]: 77.0* %; PGD2 production inhibiting action (in words) ([2]; 30 mg/kg orally, summary of Table 2): have the action
